Key:
Experiment in all cases: relative viability (nuclei count vs DMSO), 5 days (fraction); higher = more cells survive
NCI-H3122 = system: NCI-H3122
How it was run: (§1)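 Lung cancer cell lines in 1536-well plates were dosed by pin tool the day after seeding, either with one drug alone or with a fixed anchor-drug dose plus five library-drug doses (not always all listed) in √10 steps. After 5 days, cells were fixed and their nuclei stained in one step (final 0.05% Triton X-100, 1% formaldehyde, 1 ug/ml Hoechst), then counted on 4× images. Relative viability is the nuclei count in treated wells divided by that in vehicle wells. Values are medians of duplicate plates.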

PC-14 = system: PC-14
How it was run: as §1

NCI-H1355 = system: NCI-H1355
How it was run: as §1

NCI-H441 = system: NCI-H441
How it was run: as §1

NCI-H520 = system: NCI-H520
How it was run: as §1

NCI-H727 = system: NCI-H727
How it was run: as §1

NCI-H322M = system: NCI-H322M
How it was run: as §1

NCI-H596 = system: NCI-H596
How it was run: as §1

NCI-H1792 = system: NCI-H1792
How it was run: as §1

NCI-H661 = system: NCI-H661
How it was run: as §1

NCI-H1755 = system: NCI-H1755
How it was run: as §1

NCI-H1915 = system: NCI-H1915
How it was run: as §1

SK-MES-1 = system: SK-MES-1
How it was run: as §1

LCLC-103H = system: LCLC-103H
How it was run: as §1

NCI-H2347 = system: NCI-H2347
How it was run: as §1

NCI-H1651 = system: NCI-H1651
How it was run: as §1

LXF-289 = system: LXF-289
How it was run: as §1

NCI-H460 = system: NCI-H460
How it was run: as §1

RERF-LC-KJ = system: RERF-LC-KJ
How it was run: as §1

NCI-H1563 = system: NCI-H1563
How it was run: as §1

For O=c1cc(N2CCOCC2)oc2c(-c3cccc4c3sc3ccccc34)cccc12 + Cc1nc(NC(=O)N2CCC[C@H]2C(N)=O)sc1-c1ccnc(C(C)(C)C(F)(F)F)c1 [Alpelisib] (partner 2 µM), the relative viability (NCI-H3122; first compound 0.01 µM) was 0.868, the relative viability (NCI-H3122; first compound 0.03162 µM) was 0.729 and the relative viability (NCI-H3122; first compound 0.1 µM) was 0.839. For the same compound, the relative viability (NCI-H3122; first compound 0.3162 µM) was 0.756, the relative viability (NCI-H3122; first compound 1 µM) was 0.713 and the relative viability (PC-14; first compound 0.01 µM) was 0.987. It also gave a relative viability (PC-14; first compound 0.03162 µM) of 0.891, a relative viability (PC-14; first compound 0.1 µM) of 0.931 and a relative viability (PC-14; first compound 0.3162 µM) of 1.04. It also gave a relative viability (PC-14; first compound 1 µM) of 0.978, a relative viability (NCI-H1355; first compound 0.01 µM) of 0.871 and a relative viability (NCI-H1355; first compound 0.03162 µM) of 0.855. The relative viability (NCI-H1355; first compound 0.3162 µM) was 0.903, the relative viability (NCI-H1355; first compound 1 µM) was 0.82 and the relative viability (NCI-H441; first compound 0.01 µM) was 0.832. For the same compound, the relative viability (NCI-H441; first compound 0.03162 µM) was 0.658, the relative viability (NCI-H441; first compound 0.1 µM) was 0.792 and the relative viability (NCI-H441; first compound 0.3162 µM) was 0.842. The relative viability (NCI-H441; first compound 1 µM) was 0.7, the relative viability (NCI-H520; first compound 0.01 µM) was 0.997 and the relative viability (NCI-H520; first compound 0.03162 µM) was 1.09. For the same compound, the relative viability (NCI-H520; first compound 0.1 µM) was 0.915, the relative viability (NCI-H520; first compound 0.3162 µM) was 0.841 and the relative viability (NCI-H520; first compound 1 µM) was 0.996. It also gave a relative viability (NCI-H727; first compound 0.01 µM) of 0.481, a relative viability (NCI-H727; first compound 0.03162 µM) of 0.591 and a relative viability (NCI-H727; first compound 0.1 µM) of 0.493. For the same compound, the relative viability (NCI-H727; first compound 0.3162 µM) was 0.538, the relative viability (NCI-H727; first compound 1 µM) was 0.541 and the relative viability (NCI-H322M; first compound 0.01 µM) was 0.804. It also gave a relative viability (NCI-H322M; first compound 0.03162 µM) of 0.721, a relative viability (NCI-H322M; first compound 0.3162 µM) of 0.82 and a relative viability (NCI-H322M; first compound 1 µM) of 0.813. The relative viability (NCI-H596; first compound 0.01 µM) was 0.469, the relative viability (NCI-H596; first compound 0.03162 µM) was 0.506 and the relative viability (NCI-H596; first compound 0.1 µM) was 0.451. For the same compound, the relative viability (NCI-H596; first compound 0.3162 µM) was 0.474, the relative viability (NCI-H596; first compound 1 µM) was 0.522 and the relative viability (NCI-H1792; first compound 0.01 µM) was 0.677. It also gave a relative viability (NCI-H1792; first compound 0.03162 µM) of 0.628, a relative viability (NCI-H1792; first compound 0.1 µM) of 0.709 and a relative viability (NCI-H1792; first compound 0.3162 µM) of 0.672. The relative viability (NCI-H1792; first compound 1 µM) was 0.674, the relative viability (NCI-H661; first compound 0.01 µM) was 0.556 and the relative viability (NCI-H661; first compound 0.03162 µM) was 0.243. It also gave a relative viability (NCI-H661; first compound 0.1 µM) of 0.591, a relative viability (NCI-H661; first compound 0.3162 µM) of 0.606 and a relative viability (NCI-H661; first compound 1 µM) of 0.506. The relative viability (NCI-H1755; first compound 0.01 µM) was 0.952, the relative viability (NCI-H1755; first compound 0.03162 µM) was 0.901 and the relative viability (NCI-H1755; first compound 0.1 µM) was 0.984. The relative viability (NCI-H1755; first compound 0.3162 µM) was 0.866, the relative viability (NCI-H1755; first compound 1 µM) was 0.894 and the relative viability (NCI-H1915; first compound 0.01 µM) was 1.08. The relative viability (NCI-H1915; first compound 0.03162 µM) was 1.04, the relative viability (NCI-H1915; first compound 0.1 µM) was 1.07 and the relative viability (NCI-H1915; first compound 0.3162 µM) was 1.04. It also gave a relative viability (NCI-H1915; first compound 1 µM) of 1.06, a relative viability (SK-MES-1; first compound 0.01 µM) of 0.842 and a relative viability (SK-MES-1; first compound 0.03162 µM) of 0.839. The relative viability (SK-MES-1; first compound 0.1 µM) was 0.867, the relative viability (SK-MES-1; first compound 0.3162 µM) was 0.935 and the relative viability (SK-MES-1; first compound 1 µM) was 0.937. For the same compound, the relative viability (LCLC-103H; first compound 0.01 µM) was 0.904, the relative viability (LCLC-103H; first compound 0.03162 µM) was 0.924 and the relative viability (LCLC-103H; first compound 0.1 µM) was 1.03. It also gave a relative viability (LCLC-103H; first compound 0.3162 µM) of 1.03, a relative viability (LCLC-103H; first compound 1 µM) of 0.93 and a relative viability (NCI-H2347; first compound 0.01 µM) of 1.17. For the same compound, the relative viability (NCI-H2347; first compound 0.03162 µM) was 1.04, the relative viability (NCI-H2347; first compound 0.1 µM) was 1.04 and the relative viability (NCI-H2347; first compound 0.3162 µM) was 1. For the same compound, the relative viability (NCI-H2347; first compound 1 µM) was 1.02, the relative viability (NCI-H1651; first compound 0.01 µM) was 0.924 and the relative viability (NCI-H1651; first compound 0.03162 µM) was 0.952. For the same compound, the relative viability (NCI-H1651; first compound 0.1 µM) was 1.04, the relative viability (NCI-H1651; first compound 0.3162 µM) was 0.968 and the relative viability (NCI-H1651; first compound 1 µM) was 1.01. For the same compound, the relative viability (LXF-289; first compound 0.01 µM) was 1.05, the relative viability (LXF-289; first compound 0.03162 µM) was 1.03 and the relative viability (LXF-289; first compound 0.1 µM) was 1.05. The relative viability (LXF-289; first compound 0.3162 µM) was 1, the relative viability (LXF-289; first compound 1 µM) was 1.02 and the relative viability (NCI-H460; first compound 0.01 µM) was 0.509. For the same compound, the relative viability (NCI-H460; first compound 0.03162 µM) was 0.502, the relative viability (NCI-H460; first compound 0.1 µM) was 0.495 and the relative viability (NCI-H460; first compound 0.3162 µM) was 0.373. It also gave a relative viability (NCI-H460; first compound 1 µM) of 0.538, a relative viability (RERF-LC-KJ; first compound 0.01 µM) of 0.834 and a relative viability (RERF-LC-KJ; first compound 0.03162 µM) of 0.892. The relative viability (RERF-LC-KJ; first compound 0.1 µM) was 0.981, the relative viability (RERF-LC-KJ; first compound 0.3162 µM) was 0.86 and the relative viability (RERF-LC-KJ; first compound 1 µM) was 0.9. The relative viability (NCI-H1563; first compound 0.01 µM) was 0.917, the relative viability (NCI-H1563; first compound 0.03162 µM) was 0.858 and the relative viability (NCI-H1563; first compound 0.1 µM) was 0.93. It also gave a relative viability (NCI-H1563; first compound 0.3162 µM) of 0.833 and a relative viability (NCI-H1563; first compound 1 µM) of 0.844.

— the supplement of paper PMC10307832
